{"source": "patent US8114895B2", "about": "“Use of bipyridine compound ‘Caerulomycin A’ derivatives and analogs thereof as immunosuppressive agents” (Council of Science and Industrial Research, priority 2005, dated 2012)", "key": {"CD4^+ T cells": {"system": "CD4^+ T cells", "experiment": "Proliferation of CD4+ T cells obtained from antigen-primed animals", "type": "cell-based", "conditions": "CD4+ T cells from OVA-FCA injected mice, stimulated with antigen-pulsed γ-irradiated splenocytes", "procedure": "A single cell suspension of mice splenocytes obtained from OVA-CFA primed mice. The red blood cells were depleted by treatment with hemolytic Gey's solution. The adherent cells were removed by plating onto plastic Petri plates for 2 h at 37° C. and 7% CO2. The non-adherent cells were loaded (1×10^6 cells/ml) onto the nylon wool column and incubated for 90 min at 37° C. After the incubation period, warm RPMI was passed into the column to elute T lymphocytes. The T cells were washed with RPMI and incubated with anti-Mac3 (TIB-168), anti-IA^d (MKD6), anti-dendritic cell (TIB-227), anti-IgM and anti-CD8 Abs for 45 min at 4° C. […] The purity of the cells was analyzed by flow-cytometry of the cells stained with anti-CD3 and CD4 Abs. […]\nExamples establishing the role of Caerulomycin A [isolated from a novel species of Actinoalloteichus] in inducing immunosuppression based on the following: • Splenocytes of BALB/c mice were stimulated with either ConA (1 μg/ml and 2 μg/ml) or LPS (5 μg/ml and 10 μg/ml) and were cultured with different concentrations of Caerulomycin A (0.0003-0.1 μg/ml). […] Radioactivity incorporated was measured by liquid scintillation counting. • Antigen ovalbumin (100 μg/ml) emulsified in Freund's complete adjuvant was injected in a group consisting of 5 BALB/c mice. […] Radioactivity incorporated was measured by liquid scintillation. […]"}, "thymocytes": {"system": "thymocytes", "experiment": "Expression of CD69 on mouse thymocytes", "type": "cell-based, BALB/c mice", "conditions": "ConA 1 and 5 μg/ml, 24 h", "procedure": "The expression of CD69 was detected on the surface of thymocytes in the presence of Caerulomycin A. Thymocytes were obtained from 3-4 weeks old BALB/c mice. Thymocytes (4×10^6 cells/well) were stimulated with 1 μg/ml and 5 μg/ml of ConA for 24 h in the presence and absence of Caerulomycin A at 37° C. The cells were stained with PE labeled anti-mouse CD69 Ab. The stained cells were acquired on a FACScan as mentioned in the case of CD28/CTLA-4."}, "B cells": {"system": "B cells", "experiment": "Secretion of antibodies"}, "Th1 cells (3DO.54.8)": {"system": "Th1 cells (3DO.54.8)", "experiment": "Proliferation of Th1 cells", "type": "cell-based", "conditions": "anti-CD3 Ab 10 μg/ml; 24 h", "procedure": "Th1 cells (1×10^4 cells/well) were stimulated with anti-CD3 Ab (10 μg/ml) and different doses Caerulomycin A. After 24 h, [^3H]-thymidine was added, and its incorporation was measured 8 h later."}}}
{"smiles": "COc1cc(/C=N/O)nc(-c2ccccn2)c1", "note": "[Caerulomycin A, (E)-4-methoxy-2,2′-bipyridine-6-carbaldehyde oxime]", "values": [{"measurement": "proliferation of antigen stimulated CD4+ T cells", "setting": "CD4^+ T cells", "result": "significantly suppressed the proliferation"}, {"measurement": "expression of CD69", "setting": "thymocytes", "result": "no change in the expression"}, {"measurement": "secretion of IgG1 type of antibodies", "setting": "B cells", "result": "inhibited the secretion"}, {"measurement": "secretion of IgG2a type of antibodies", "setting": "B cells", "result": "inhibited the secretion"}, {"measurement": "proliferation of Th1 cells", "setting": "Th1 cells (3DO.54.8)", "result": "inhibited the proliferation"}]}
